{
  "source": "patent US20040229960A1",
  "about": "“Compositions and methods of administering tubulin binding agents for the treatment of ocular diseases” (priority 2001, published 2004)",
  "key": {"[1]": {"assay": "Intraocular irritation following intravitreal injection", "assay_type": "in vivo, rabbits", "conditions": "for Mean cell counts in the vitreous fluid (white blood cells): 0.2 ml intravitreal, about 48 h, <=200 acceptable", "description": "The test article, CA4P, was evaluated for the potential to cause intraocular irritation following intravitreal injection in rabbits. Following general anesthesia, a 0.2 ml dose of CA4P was administered to the right eyes of eight rabbits. A 0.2 ml dose of 0.9% sodium chloride USP solution was administered to the left eyes of the rabbits to serve as a negative control. Four different concentrations of CA4P were tested. Each of the four concentrations (0.1 mg/ml, 1.0 mg/ml, 10 mg/ml and 100 mg/ml) were dosed to the right eyes of two rabbits. Approximately 48 hours after the treatment, the eyes were examined with a biomicroscopic slit-lamp and an indirect ophthalmoscope. The scores were recorded and the rabbits were euthanized. Immediately after euthanasia, samples of vitreous fluid were drawn and white blood cell counts were determined with a hemacytometer. Counts less than or equal to 200 cells/mm^3 were considered to be acceptable."}, "[2]": {"assay": "Transscleral iontophoretic delivery to retina/choroid (LC/MS/MS)", "assay_type": "in vivo, New Zealand white rabbits", "conditions": "for Enhancement: 20 min vs passive 0 mA; for Amount CA4P Delivered / Amount CA4 Delivered / Total Combretastatin Delivered: retina/choroid, mean ± SD; for Amount CA4P Delivered / Amount CA4 Delivered: CA4P 10 mg/ml; for Amount CA4 Delivered: extrapolated beyond quantification range", "description": "CA4P is ionizable at physiological pH and therefore is amenable to iontophoretic delivery. The effectiveness of transcleral iontophoretic delivery of CA4P was evaluated using an ocular rabbit ophthalmic applicator (IOMED Inc.,.Salt Lake City, Utah) composed of an 180 ul silicone receptacle shell backed with silver chloride-coated silver foil current distribution component, a connector lead wire, and a single layer of hydrogel-impregnated polyvinyl acetal matrix to which CA4P (10 mg/ml) was administered. The contact surface area of the applicator was 0.54 cm^2. […] Direct current anodal iontophoresis was performed with each applicator at 2,3,and 4 mA for 20 min using an Phoresor II™ PM 700 (IOMED Inc., Salt Lake City, Utah) power supply. Passive iontophoresis (0 mA for 20 min) was used as a control. Following treatment, the animals were euthanized, and eyes were enucleated 30 minutes post-treatment, rinsed with tap water, and frozen at −70 C. Retina and choirodal tissue was dissected from these sample.\nCA4P, CA, and the internal standard Diethylstilbestrol (Sigma Chemical Company) were quantified from approximately 100 mg of tissue using chromatography tandem mass spectrometry (“LC/MS/MS”) method. An aliquot of methonal extraction was injected onto a SCIEX APIO 3000 LC/MS/MS apparatus equipped with an HPLC colum. Peak area of the m/z 315→285 product ion of CA43 and m/z 395→79 product ion of CA4P were measured against the peak area of the m/z 267→237 product ion of the internal standard. Quantitation was performed using weighted (1/x) linear least squares regression analyses generated from fortified calibration standards prepared immediately prior to each run. […] These levels represent a several thousand-fold excess over what is considered to be a therapeutically relevant concentration for inhibiting tubulin binding (2-3 uM)."}, "[3]": {"assay": "Primary ocular irritation, topical drops", "assay_type": "in vivo", "description": "The test article, CA4P, was evaluated for primary ocular irritation. A single 0.2 ml dose of CA4P dilution (0.1, 1.0, 10 and 100 mg/ml) was placed in the lower conjunctival sac of the left eye […]. The contralateral eye received buffered saline solution. Ocular reactions were evaluated at 24, 48 and 72 hours after the sample instillation."}, "[4]": {"assay": "Biodistribution of 14C-CA4P following periocular injection", "assay_type": "in vivo, New Zealand rabbits", "description": "^14C-CA4P (OXiGENE Inc., Watertown, Mass.) was resuspended in 100 ul volume of saline solution and injected with a 30 G needle into the right eyes of anesthesized male New Zealand rabbits (4 months old, 1.8-2.5 kg, n=3 per sample). Three different concentrations of ^14C-CA4P were tested (1, 10, 100 mg/ml) corresponding to doses of 1, 5, and 5 uCi of applied radioactivity respectively. A blank control group was also included. Rabbits were anaesthetized at 1, 6, 24, and 48 hours for blood sampling. After blood collection, the animals were euthanized by Phenobarbital injection and the treated right eyes were removed from all test animals. Ocular tissue samples were dissected from the cornea, aqueous humor, vitreous humor, choroid, or retina, placed in 20-mi glass scintillation vials, vortexed, and incubated for 24 hrs with 500 ul digesting fluid. Plasma was separated from whole blood by centrifugation (1,800 g for 10 minutes). Both ocular tissue samples and plasma were incubated at room temperature with 16 ml of Hionic Fluor™ scintillation fluid for a period of 24 hours prior to radioactivity counting. Each sample was counted for 5 minutes in a Betamatic V counter (Bio-Tek Kontron Instruments, St Quentin en Yvelines, France). The conversion of counts per minute (“cpm”) into disintegrations per minute (“dpm”) was performed automatically by the beta-counter, using calibration curves obtained from ^14C-standards and quenching curves from the respective blank matrices spiked with ^14C-standards. The concentration of drug was determined according to nanogram equivalents of CA4P (ng-Eq/g of tissue) which was calculated from the measured dpm value, the weight of the tissue specimen, and the specific activity of the drug (0.37 mCi/mg), followed by subtraction of the corresponding background value from control eye tissue. A tissue concentration of 1 uM CA4P is equal to […] tissue."}},
  "data": [
    {"smiles": "COc1ccc(/C=C\\c2cc(OC)c(OC)c(OC)c2)cc1OP(=O)([O-])[O-].[Na+].[Na+]", "note": "[CA4P, combretastatin A4 disodium phosphate]", "values": [
      {"measurement": "Mean cell counts in the vitreous fluid (white blood cells)", "setting": "[1]; 0.1 mg/ml", "value": 9, "unit": "cells/mm^3"},
      {"measurement": "Irritation on slit-lamp and ophthalmoscope examination", "setting": "[1]; 1 mg/ml intravitreal, 2 rabbits", "value": "evidence of irritation was noted in one animal"},
      {"measurement": "Mean cell counts in the vitreous fluid (white blood cells)", "setting": "[1]; 1 mg/ml", "value": 962, "unit": "cells/mm^3"},
      {"measurement": "Mean cell counts in the vitreous fluid (white blood cells)", "setting": "[1]; 10 mg/ml", "value": 10, "unit": "cells/mg^3"},
      {"measurement": "Irritation and inflammation, ophthalmic exams and vitreous white blood cells", "setting": "[1]; 100 mg/ml intravitreal, both animals", "value": "pronounced irritation and inflammation"},
      {"measurement": "Mean cell counts in the vitreous fluid (white blood cells)", "setting": "[1]; 100 mg/ml", "value": 409, "unit": "cells/mm^3"},
      {"measurement": "Irritation (Draize Scores)", "setting": "[1]; Intravitreal, <1 mg", "value": "No Irritation"},
      {"measurement": "Irritation and inflammation, ophthalmic exams and vitreous white blood cells", "setting": "[1]; lower dose levels 0.1, 1.0 and 10 mg/ml intravitreal", "value": "no clear evidence of irritation or inflammation"},
      {"measurement": "Enhancement", "setting": "[2]; 2 mA", "value": 17},
      {"measurement": "Enhancement", "setting": "[2]; 3 mA", "value": 16},
      {"measurement": "Enhancement", "setting": "[2]; 4 mA", "value": 15},
      {"measurement": "Enhancement of delivery of total combretastatin to choroid and retina by iontophoresis", "setting": "[2]; iontophoresis vs passive delivery", "value": "approximately 15 fold"},
      {"measurement": "Amount CA4P Delivered", "setting": "[2]; 0 mA, 20 min (passive)", "value": "<0.4", "unit": "ng"},
      {"measurement": "Amount CA4 Delivered", "setting": "[2]; 0 mA, 20 min (passive)", "value": "57 ± 37", "unit": "ng"},
      {"measurement": "Total Combretastatin Delivered", "setting": "[2]; 0 mA, 20 min (passive)", "value": "1.6 ± 1.0", "unit": "nmol/g"},
      {"measurement": "Amount CA4P Delivered", "setting": "[2]; 2 mA, 20 min", "value": "1.4 ± 0.5", "unit": "ng"},
      {"measurement": "Amount CA4 Delivered", "setting": "[2]; 2 mA, 20 min", "value": "910 ± 630", "unit": "ng"},
      {"measurement": "Total Combretastatin Delivered", "setting": "[2]; 2 mA, 20 min", "value": "27 ± 15", "unit": "nmol/g"},
      {"measurement": "Amount CA4P Delivered", "setting": "[2]; 3 mA, 20 min", "value": "3.8 ± 1.5", "unit": "ng"},
      {"measurement": "Amount CA4 Delivered", "setting": "[2]; 3 mA, 20 min", "value": "710 ± 450", "unit": "ng"},
      {"measurement": "Total Combretastatin Delivered", "setting": "[2]; 3 mA, 20 min", "value": "25 ± 17", "unit": "nmol/g"},
      {"measurement": "Amount CA4P Delivered", "setting": "[2]; 4 mA, 20 min", "value": "7.2 ± 6.3", "unit": "ng"},
      {"measurement": "Amount CA4 Delivered", "setting": "[2]; 4 mA, 20 min", "value": "670 ± 440", "unit": "ng"},
      {"measurement": "Total Combretastatin Delivered", "setting": "[2]; 4 mA, 20 min", "value": "24 ± 10", "unit": "nmol/g"},
      {"measurement": "Irritation (Draize Scores)", "setting": "[3]; Topical, 0-10 mg", "value": "No Irritation"},
      {"measurement": "Macroscopic ocular reaction vs control", "setting": "[3]; all dilutions 0.1-100 mg/ml, single 0.2 ml topical dose, 24-72 h", "value": "insignificant"},
      {"measurement": "Microscopic ocular irritation vs buffered saline", "setting": "[3]; topical drops 0.1-100 mg/ml", "value": "not considered an irritant"},
      {"measurement": "Cmax", "setting": "[4]; choroid, 1 mg/ml periocular", "value": 14.3, "unit": "µM"},
      {"measurement": "Cmax", "setting": "[4]; choroid, 10 mg/ml periocular", "value": 74.5, "unit": "µM"},
      {"measurement": "Cmax", "setting": "[4]; choroid, 100 mg/ml periocular", "value": 1040, "unit": "µM"},
      {"measurement": "Time of highest concentrations of drug in the eye", "setting": "[4]; periocular injection", "value": "within the first hour"},
      {"measurement": "Cmax", "setting": "[4]; plasma, 1 mg/ml periocular", "value": 0.07, "unit": "µM"},
      {"measurement": "Cmax", "setting": "[4]; plasma, 10 mg/ml periocular", "value": 0.79, "unit": "µM"},
      {"measurement": "Cmax", "setting": "[4]; plasma, 100 mg/ml periocular", "value": 12.3, "unit": "µM"},
      {"measurement": "Concentration of drug delivered", "setting": "[4]; retina and choroid, all administered doses, periocular", "value": "> 1", "unit": "µM"},
      {"measurement": "Cmax", "setting": "[4]; retina, 1 mg/ml periocular", "value": 4.4, "unit": "µM"},
      {"measurement": "Cmax", "setting": "[4]; retina, 10 mg/ml periocular", "value": 54, "unit": "µM"},
      {"measurement": "Cmax", "setting": "[4]; retina, 100 mg/ml periocular", "value": 169, "unit": "µM"},
      {"measurement": "Cmax", "setting": "[4]; sclera, 1 mg/ml periocular", "value": 18, "unit": "µM"},
      {"measurement": "Cmax", "setting": "[4]; sclera, 10 mg/ml periocular", "value": 280, "unit": "µM"},
      {"measurement": "Cmax", "setting": "[4]; sclera, 100 mg/ml periocular", "value": 3370, "unit": "µM"},
      {"measurement": "Cmax", "setting": "[4]; vitreous, 1 mg/ml periocular", "value": 0.03, "unit": "µM"},
      {"measurement": "Cmax", "setting": "[4]; vitreous, 10 mg/ml periocular", "value": 0.34, "unit": "µM"},
      {"measurement": "Cmax", "setting": "[4]; vitreous, 100 mg/ml periocular", "value": 3.35, "unit": "µM"}
    ]}
  ]
}
